How the values were obtained:
[1] = biological target: T1, SGLT2 (Homo sapiens, UniProt P31639); test: 14C-AMG uptake in BHK cells transfected with SGLT2 (96-well cell-based assay); details: 2 mM AMG, 37° C., 90 min
T1 construct: expressed in transfected cells
T1 sequence (P31639 1-672): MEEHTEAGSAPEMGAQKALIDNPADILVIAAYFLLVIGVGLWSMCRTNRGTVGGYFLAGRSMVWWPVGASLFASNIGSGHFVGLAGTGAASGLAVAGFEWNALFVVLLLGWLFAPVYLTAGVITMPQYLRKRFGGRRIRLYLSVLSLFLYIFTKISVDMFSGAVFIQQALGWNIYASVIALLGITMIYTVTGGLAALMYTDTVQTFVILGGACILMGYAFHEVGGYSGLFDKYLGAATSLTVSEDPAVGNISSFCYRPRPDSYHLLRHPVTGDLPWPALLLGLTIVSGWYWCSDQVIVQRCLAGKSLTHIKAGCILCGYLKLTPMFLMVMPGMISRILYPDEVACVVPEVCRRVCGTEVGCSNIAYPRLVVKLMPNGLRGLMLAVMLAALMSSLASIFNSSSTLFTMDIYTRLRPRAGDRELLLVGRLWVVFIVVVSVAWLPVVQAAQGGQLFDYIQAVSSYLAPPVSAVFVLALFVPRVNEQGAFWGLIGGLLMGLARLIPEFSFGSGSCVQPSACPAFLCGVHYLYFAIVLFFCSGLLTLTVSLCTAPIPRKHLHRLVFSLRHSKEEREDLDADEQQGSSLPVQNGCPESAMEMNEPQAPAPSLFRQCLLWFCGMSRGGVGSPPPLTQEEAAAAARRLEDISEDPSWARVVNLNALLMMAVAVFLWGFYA
Text: (§1) The compounds can be tested for their SGLT inhibition properties by means of BHK cells expressing SGLT1 and SGLT2. The production of the cells and the testing can be carried out as described below.
To construct the SGLT2 expression vector (KL224), the SLC5A2 gene (homologous to NM_003041) was amplified from a cDNA library using standard PCR technology and cloned over NheI/XhoI sites into PCI-neo expression vector (Promega) containing neomycin as a selection marker. In this vector, transcription uses the enhancer/promoter of human cytomegalovirus and the SV40 polyadenylation signal.
(§2) The final vector KL224 together with an additional vector containing a dihydrofolate reductase gene as a selection marker was introduced into cells. Transfection into BHK21 cells (ATCC CCL-10), cultivated in DMEM medium (GIBCO/BRL), supplemented with 10% foetal calf serum (FCS) and 20 mM glutamine, was carried out using calcium phosphate transfections according to Graham, F. L. and van der Ebb, A. J. (1973), Virology 52: 456 with 5-20 μg of uncut plasmids for 10^7 cells. Stable transfectants were selected in medium containing 1 mg/ml of G418 (GIBCO/BRL) and 20-5000 nM methotrexate as final concentration, where only cells which expressed the neomycin gene and overexpressed the dhfr gene were able to grow. After growth for 2-3 weeks, the cells were cloned (0.5 cells/well) and the clones were investigated for SGLT expression in radioactivity uptake tests.
(§3) The uptake of ^14C-α-methyl-D-glucopyranoside (AMG) in, for example, Xenopus oocytes injected with the corresponding cRNA has been described in principle (for example Wen-Sen Lee et al. (1994), J. Biol. Chem. 269, 12032-12039; Guofeng You et al. (1995), J. Biol. Chem. 270, 29365-29371).
(§4) A 96-well cell-based assay was developed and adapted to HTS requirements:
(§5) BHK cells (transfected with SGLT1 or SGLT2) were seeded into 96-well microtitre plates (Cultureplates, Perkin Elmer). After at least 24 h, medium was removed, and the cell layer was washed with assay buffer (140 mM NaCl, 2 mM KCl, 1 mM CaCl2, 1 mM MgCl2, 10 mM HEPES, 5 mM Tris, adjusted to pH 7.4 using 1 M KOH). After addition of 40 μl of assay buffer, 50 μl of AMG (50 μM for SGLT1 and 2 mM for SGLT2) in the presence or absence of compounds, the cells were incubated in a total volume of 100 μl at 37° C. for 90 min. Supernatant was removed by suction and discarded. Cells were washed and lysed by addition of 50 μl of water. After 10 min at room temperature, 200 μl of Micrsoscint 40 (Perkin Elmer) were added. The radioactivity was counted in a Topcount microplate scintillation counter (Perkin Elmer). The non-specific uptake was determined in sodium-free assay buffer (266 mM sucrose, 2 mM KCl, 1 mM CaCl2, 1 mM MgCl2, 10 mM HEPES, 5 mM Tris, adjusted to pH 7.4 using 1 M KOH).

[2] = biological target: T2, SGLT1 (Homo sapiens, UniProt P13866); test: 14C-AMG uptake in BHK cells transfected with SGLT1 (96-well cell-based assay); details: 50 μM AMG, 37° C., 90 min
T2 construct: expressed in transfected cells
T2 sequence (P13866 1-664): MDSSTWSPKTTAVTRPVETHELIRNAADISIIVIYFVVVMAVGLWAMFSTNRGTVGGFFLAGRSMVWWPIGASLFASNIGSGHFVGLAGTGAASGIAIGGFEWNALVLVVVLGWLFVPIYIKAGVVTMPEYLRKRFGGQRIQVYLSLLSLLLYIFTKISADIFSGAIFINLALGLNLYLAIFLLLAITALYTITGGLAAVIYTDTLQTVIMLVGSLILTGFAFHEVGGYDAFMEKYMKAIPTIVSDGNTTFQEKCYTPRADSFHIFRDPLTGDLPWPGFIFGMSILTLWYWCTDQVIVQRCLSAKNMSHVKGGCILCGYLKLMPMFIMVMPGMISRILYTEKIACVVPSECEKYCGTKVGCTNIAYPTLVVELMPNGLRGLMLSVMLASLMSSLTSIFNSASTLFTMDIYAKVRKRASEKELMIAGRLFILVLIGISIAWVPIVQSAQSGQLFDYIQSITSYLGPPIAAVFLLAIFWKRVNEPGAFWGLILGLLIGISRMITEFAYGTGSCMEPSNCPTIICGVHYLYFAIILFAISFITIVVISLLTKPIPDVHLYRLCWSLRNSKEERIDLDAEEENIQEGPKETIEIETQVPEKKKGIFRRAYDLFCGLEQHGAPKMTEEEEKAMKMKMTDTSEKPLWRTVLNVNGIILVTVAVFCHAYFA
Text: as §1
To construct the SGLT1 expression vector (KL225), the SLC5A1 gene (homologous to NM_000343) was amplified from a cDNA library using standard PCR technology and cloned over NheI/XhoI sites into the pcDNA3.1 expression vector (Invitrogen) containing neomycin as a selection marker. In this vector, transcription uses the enhancer/promoter of human cytomegalovirus.
as §2, with “KL225” for “KL224”
as §3, §4, §5

SMILES | IC50 [1] [µM] | IC50 [2] [µM]
Cc1cccc(C)c1Cn1c(-c2ncccc2OCC(N)=O)nc2ccccc21 [Compound A16, 2-{2-[1-(2,6-Dimethylbenzyl)-1H-benzimidazol-2-yl]pyridin-3-yloxy}acetamide] | > 10 | –
CNc1nnc(-c2ccccc2-c2nc3ccccc3n2Cc2c(C)cccc2C)o1 [Compound A31] | 0.01 to 1 | –
NC(=O)COc1ccccc1-c1nc2ccccc2n1Cc1ccccc1 [Compound A8, 2-[2-(1-Benzyl-1H-benzimidazol-2-yl)phenoxy]-acetamide] | > 10 | > 10
Cc1cccc(C)c1Cn1c(-c2ccc(F)cc2OCC(N)=O)nc2ccccc21 [Compound A17, 2-{2-[1-(2,6-Dimethylbenzyl)-1H-benzimidazol-2-yl]-5-fluorophenoxy}acetamide] | 0.01 to 1 | > 10
NC(=O)COc1ccccc1-c1nc2cccc(Cl)c2n1Cc1c(Cl)cccc1Cl [Compound A21, 2-{2-[7-Chloro-1-(2,6-dichlorobenzyl)-1H-benzimidazol-2-yl]phenoxy}acetamide] | 1 to 10 | > 10
NC(=O)COc1ccccc1-c1nc2cc(Cl)ccc2n1Cc1c(Cl)cccc1Cl [Compound A18, 2-{2-[5-Chloro-1-(2,6-dichlorobenzyl)-1H-benzimidazol-2-yl]phenoxy}acetamide] | > 10 | > 10
Cc1cccc(C)c1Cn1c(-c2ccccc2OC(CO)C(N)=O)nc2ccccc21 (centres unmarked) [Compound A27, 2-{2-[1-(2,6-Dimethylbenzyl)-1H-benzimidazol-2-yl]phenoxy}-3-hydroxypropionamide] | > 10 | > 10
COc1ccc(-c2nc3ccccc3n2Cc2c(C)cccc2C)c(OCC(N)=O)c1 [Compound A13, 2-{2-[1-(2,6-Dimethylbenzyl)-1H-benzimidazol-2-yl]-5-methoxyphenoxy}acetamide] | 1 to 10 | > 10
Cc1cccc(C)c1Cn1c(-c2ccccc2OCC(N)=O)nc2ccc(F)cc21 [Compound A4, 2-{2-[1-(2,6-Dimethylbenzyl)-6-fluoro-1H-benzimidazol-2-yl]phenoxy}acetamide] | 0.01 to 1 | > 10
NC(=O)COc1ccccc1-c1nc2ccccc2n1Cc1c(F)cccc1F [Compound A9, 2-{2-[1-(2,6-Difluorobenzyl)-1H-benzimidazol-2-yl]phenoxy}acetamide] | 1 to 10 | > 10
Cc1cccc(C)c1Cn1c(-c2cccc(C)c2OCC(N)=O)nc2ccccc21 [Compound A12, 2-{2-[1-(2,6-Dimethylbenzyl)-1H-benzimidazol-2-yl]-6-methylphenoxy}acetamide] | 1 to 10 | > 10
Cc1cccc(Cl)c1Cn1c(-c2ccccc2OCC(N)=O)nc2ccccc21 [Compound A22, 2-{2-[1-(2-Chloro-6-methylbenzyl)-1H-benzimidazol-2-yl]phenoxy}acetamide] | 1 to 10 | > 10
Cc1cccc(C)c1Cn1c(-c2ccccc2OCC(N)=O)nc2ccccc21 [Compound A2, 2-{2-[1-(2,6-dimethylbenzyl)-1H-benzimidazol-2-yl]-phenoxy}acetamide] | 0.01 to 1 | > 10
Cc1cccc(C)c1C(=O)n1c(-c2ccccc2OCC(N)=O)nc2ccccc21 [Compound A25, 2-{2-[1-(2,6-Dimethylbenzoyl)-1H-benzimidazol-2-yl]phenoxy}acetamide] | > 10 | > 10
NC(=O)COc1ccccc1-c1nc2cc(F)ccc2n1Cc1c(Cl)cccc1Cl [Compound A19, 2-{2-[1-(2,6-Dichlorobenzyl)-5-fluoro-1H-benzimidazol-2-yl]phenoxy}acetamide] | 1 to 10 | > 10
Cc1cccc(C)c1Cn1c(-c2cccc(F)c2OCC(N)=O)nc2ccccc21 [Compound A10, 2-{2-[1-(2,6-Dimethylbenzyl)-1H-benzimidazol-2-yl]-6-fluorophenoxy}acetamide] | 0.01 to 1 | > 10
Cc1cccc(C)c1Cn1c(-c2ccccc2OCC(N)=O)nc2cc(F)c(F)cc21 [Compound A5, 2-{2-[1-(2,6-Dimethylbenzyl)-5,6-difluoro-1H-benzimidazol-2-yl]phenoxy}acetamide] | 0.01 to 1 | > 10
Cc1cccc(C)c1Cn1c(-c2ccccc2OCC(N)=O)nc2cccc(Cl)c21 [Compound A24, 2-{2-[7-Chloro-1-(2,6-dimethylbenzyl)-1H-benzimidazol-2-yl]phenoxy}acetamide] | 0.01 to 1 | 1 to 10
Cc1cccc(C)c1Cn1c(-c2c(F)cccc2OCC(N)=O)nc2ccccc21 [Compound A3, 2-{2-[1-(2,6-Dimethylbenzyl)-1H-benzimidazol-2-yl]-3-fluorophenoxy}acetamide] | 0.01 to 1 | –
Cc1cccc(C)c1Cn1c(-c2ccccc2OCC(N)=O)nc2cccc(Br)c21 [Compound A23, 2-{2-[7-Bromo-1-(2,6-dimethylbenzyl)-1H-benzimidazol-2-yl]phenoxy}acetamide] | > 10 | > 10
COc1cccc(-c2nc3ccccc3n2Cc2c(C)cccc2C)c1OCC(N)=O [Compound A11, 2-{2-[1-(2,6-Dimethylbenzyl)-1H-benzimidazol-2-yl]-6-methoxyphenoxy}acetamide] | 1 to 10 | –

Source: US8119675B2, “Benzimidazole derivatives” (Merck Patent GmbH, priority 2007, dated 2012)
